# Experimental data published in the supplement of paper PMC12137928.
# Structures can show the parent of a compound that is named as a salt.
# System: HCT116
# Conditions: 72 h
# In short: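 Four-parameter Hill fits gave IC50 and maximal efficacy. The data were CellTiter-Glo luminescence readings in HCT116 cells, normalized so that vehicle was 0% and positive control was -100%, with pattern correction afterwards.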
SMILES,IC50 cell viability (ICRF193 0 nM) [µM],IC50 cell viability (ICRF193 200 nM) [µM]
Cc1cccc(C)c1NC(=O)CC12CCCN1CCC2 [Pilsicainide],> 45.8,> 45.8
C[C@@H]1C/C=C/C=C/C=C/C=C/[C@H](O[C@@H]2O[C@H](C)[C@@H](O)[C@H](N)[C@@H]2O)C[C@@H]2O[C@](O)(C[C@@H](O)C[C@H]3O[C@@H]3/C=C/C(=O)O1)C[C@H](O)[C@H]2C(=O)O [Pimaricin],> 45.8,> 45.8
COc1ccc(-c2nc3cc(C4=NNC(=O)CC4C)ccc3[nH]2)cc1 (stereo unspecified) [Pimobendan],> 45.8,> 45.8
CC(C)NCC(O)COc1cccc2[nH]ccc12 (stereo unspecified) [Pindolol],> 45.8,> 45.8
CCc1ccc(CCOc2ccc(CC3SC(=O)NC3=O)cc2)nc1 (stereo unspecified) [Pioglitazone hydrochloride],> 45.8,> 45.8
NC(=O)C1(N2CCCCC2)CCN(CCCC(=O)c2ccc(F)cc2)CC1 [Pipamperone dihydrochloride],> 45.8,> 45.8
CC(=O)O[C@H]1C[C@@H]2CC[C@@H]3[C@H](CC[C@@]4(C)[C@H]3C[C@H](N3CC[N+](C)(C)CC3)[C@@H]4OC(C)=O)[C@@]2(C)C[C@@H]1N1CC[N+](C)(C)CC1 [Pipecuronium bromide],> 45.8,> 45.8
CCn1cc(C(=O)O)c(=O)c2cnc(N3CCNCC3)nc21 [Pipemidic acid],> 45.8,> 45.8
CCN1CCN(C(=O)N[C@@H](C(=O)N[C@@H]2C(=O)N3[C@@H]2SC(C)(C)[C@@H]3C(=O)O)c2ccccc2)C(=O)C1=O [Piperacillin sodium salt],> 45.8,> 45.8
C1CNCCN1 [Piperazine],> 45.8,> 45.8
CCN1CCCC(OC(=O)C(c2ccccc2)c2ccccc2)C1 (stereo unspecified) [Piperidolate hydrochloride],> 45.8,> 45.8
O=C(OCCN1CCCCC1)C(O)(c1ccccc1)c1ccccc1 [Piperilate hydrochloride],> 45.8,> 45.8
CC1CCCCN1CCCOC(=O)c1ccccc1 (stereo unspecified) [Piperocaine hydrochloride],> 45.8,> 45.8
CCCCOCCOCCOCc1cc2c(cc1CCC)OCO2 [Piperonyl butoxide],> 45.8,> 45.8
O=C(CCBr)N1CCN(C(=O)CCBr)CC1 [Pipobroman],> 45.8,> 45.8
CCCCCCCCCCCCCCCC(=O)OCCC1CCN(CCCN2c3ccccc3Sc3ccc(S(=O)(=O)N(C)C)cc32)CC1 [Pipothiazine palmitate],> 45.8,> 45.8
NC(=O)CN1CCCC1=O [Piracetam],> 45.8,> 45.8

SMILES,IC50 cell viability (ICRF193 0 nM) [µM],IC50 cell viability (ICRF193 200 nM) [µM]
CC(C)(C)NCC(O)c1ccc(O)c(CO)n1 (stereo unspecified) [Pirbuterol hydrochloride],> 45.8,> 45.8
O=C(O)c1cc(O)c2c3nc4ccccc4oc-3cc(=O)c2n1 [Pirenoxine Sodium],> 45.8,> 45.8
CN1CCN(CC(=O)N2c3ccccc3C(=O)Nc3cccnc32)CC1 [Pirenzepine],> 45.8,> 45.8
NS(=O)(=O)c1cc(C(=O)O)cc(N2CCCC2)c1Oc1ccccc1 [Piretanide],> 45.8,> 45.8
Cc1ccc(=O)n(-c2ccccc2)c1 [Pirfenidone],> 45.8,> 45.8
CC[C@@H]1CCN[C@H](C(=O)N[C@@H]([C@H]2O[C@H](SC)[C@H](O)[C@@H](O)[C@H]2O)[C@H](C)Cl)C1 [Pirlimycin Hydrochloride],> 45.8,> 45.8
CC1CCCC(C)N1CCCC(O)(c1ccccc1)c1ccccn1 (stereo unspecified) [Pirmenol],> 45.8,> 45.8
CCN1CCC(=C2c3ccccc3CCc3ccccc32)C1C (stereo unspecified) [Piroheptine Hydrochloride],> 45.8,> 45.8
CCn1cc(C(=O)O)c(=O)c2cnc(N3CCCC3)nc21 [Piromidic acid],> 45.8,> 45.8
CN1C(C(=O)Nc2ccccn2)=C(O)c2ccccc2S1(=O)=O [Piroxicam],> 45.8,> 45.8
Clc1ccc(CCCOCCCN2CCCCC2)cc1 [Pitolisant (hydrochloride)],> 45.8,> 45.8
CC(C)(C)C(=O)OCOC(=O)[C@@H]1N2C(=O)[C@@H](NC(=O)[C@H](N)c3ccccc3)[C@H]2SC1(C)C [Pivampicillin],> 45.8,> 45.8
CC(C)(C)C(=O)OCOC(=O)[C@@H]1N2C(=O)[C@@H](/N=C/N3CCCCCC3)[C@H]2SC1(C)C [Pivmecillinam],> 45.8,> 45.8
CN1CCC(=C2c3ccccc3CCc3sccc32)CC1 [Pizotifen],> 45.8,> 45.8
c1cc(CN2CCCNCCNCCCNCC2)ccc1CN1CCCNCCNCCCNCC1 [Plerixafor hydrochloride],> 45.8,> 45.8
NCCC(=O)[N-][C@@H](Cc1c[nH]cn1)C(=O)[O-].[Zn+2] [Polaprezinc],> 45.8,> 45.8
